The text below walks through data of article PMC9781003, “Two Antenna-Enriched Odorant Binding Proteins in Dioryctria abietella Tuned to General Odorants and Insecticides” (Insects, 2022).

Read-outs that look alike come from different tables or passages of the source.

Test [1] has as its target T1, DabiOBP5 (Dioryctria abietella, UniProt A0A8E6HS34).
T1 sequence (A0A8E6HS34 19-139): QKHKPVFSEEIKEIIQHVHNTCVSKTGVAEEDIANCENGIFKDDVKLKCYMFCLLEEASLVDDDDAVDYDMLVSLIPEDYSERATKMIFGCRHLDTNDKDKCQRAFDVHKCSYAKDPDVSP
Kind of test: Competitive fluorescence binding assay with 1-NPN probe, recombinant DabiOBP5. The following applies: for OBP5 F.D. (%) fluorescence displacement percent / inhibition at 20 µM: ligand at 20 μM, DabiOBP5/1-NPN each 2 μM, Tris-HCl pH 7.4, NB = no binding; for inhibition at 20 µM: read-out: OBP5 F.D. (%) fluorescence displacement percent; for Ki: competitive displacement of 1-NPN, three replicates, mean ± SE, read-out: OBP5 Ki (dissociation constant). An excerpt:
In the binding assays, we selected 100 compounds derived from host/non-host plants and man-made insecticides widely used for the control of lepidopteran pests, representing 88 general odorants (21 esters, 21 alcohols, 14 aldehydes, 13 alkenes, seven ketones, 11 alkanes and one acid) and 12 insecticides. These compounds and N-phenyl-1-naphthylamine (1-NPN) were purchased from Aladdin and Sigma-Aldrich, with the highest available purity. […] The concentrations of the work solution for each ligand and 1-NPN were set at 1 mM.
In order to measure the binding properties of the DabiOBPs to the 100 ligands, competitive binding assays were performed on a RF5301PC fluorescence spectrophotometer (Shimadzu, Japan). The concentrations of DabiOBPs and the fluorescent probe 1-NPN were set at 2 μM. […] Accordingly, binding constants (K1-NPN) of the DabiOBPs and 1-NPN were calculated using GraphPad Prism 7 (GraphPad Software Inc., San Diego, CA). […] For the ligands replacing over a half of 1-NPN fluorescence (50%) at 20 μM, three replicates were performed. The excitation wavelength was set at 337 nm and the emission peaks were recorded at around 400 nm.

In test [2] the test system is DabiOBP14. The test is classed as binding, Dioryctria abietella. The following applies: for Ki: competitive displacement of 1-NPN, three replicates, mean ± SE, read-out: OBP14 Ki (dissociation constant). As to the method: In the binding assays, we selected 100 compounds derived from host/non-host plants and man-made insecticides widely used for the control of lepidopteran pests, representing 88 general odorants (21 esters, 21 alcohols, 14 aldehydes, 13 alkenes, seven ketones, 11 alkanes and one acid) and 12 insecticides. These compounds and N-phenyl-1-naphthylamine (1-NPN) were purchased from Aladdin and Sigma-Aldrich, with the highest available purity. They were first diluted into 100 mM, using methanol (HPLC purity grade, ≥99.9%) as a stock solution. The concentrations of the work solution for each ligand and 1-NPN were set at 1 mM.
In order to measure the binding properties of the DabiOBPs to the 100 ligands, competitive binding assays were performed on a RF5301PC fluorescence spectrophotometer (Shimadzu, Japan). The concentrations of DabiOBPs and the fluorescent probe 1-NPN were set at 2 μM. The binding of DabiOBPs to 1-NPN in 20 mM Tris-HCl buffer (pH 7.4) was measured by adding final concentrations of 2–16 μM 1-NPN. Accordingly, binding constants (K1-NPN) of the DabiOBPs and 1-NPN were calculated using GraphPad Prism 7 (GraphPad Software Inc., San Diego, CA). The binding of the DabiOBPs to various ligands was conducted by adding different concentrations of ligands (2, 4, 6, 8, 12, 16 and 20 μM) into the DabiOBP5/1-NPN (each 2 μM) or DabiOBP14/1-NPN (each 2 μM) mixtures. For the ligands replacing over a half of 1-NPN fluorescence (50%) at 20 μM, three replicates were performed. The excitation wavelength was set at 337 nm and the emission peaks were recorded at around 400 nm. The dissociation constants (Ki) of the tested ligands to DabiOBPs were computed, using the equation: Ki = [IC50]/(1 + [1-NPN]/K1-NPN), where [1-NPN] was the free concentration of 1-NPN and IC50 was the concentration of ligands replacing 50% of 1-NPN fluorescence.

Setting [3] is: ligand at 20 μM, DabiOBP14/1-NPN each 2 μM, Tris-HCl pH 7.4, NB = no binding.

Turning to `CCC/C=C\C=O` [Z2-Hexenal], in test [1], the “OBP5 F.D. (%) fluorescence displacement percent” value came to 39.42%. Moreover, the “OBP14 F.D. (%) fluorescence displacement percent” value in test [2] (setting [3]) was found to be 33.09%.

With `CC/C=C\CCO` [Z3-Hexen-1-ol], the “OBP5 F.D. (%) fluorescence displacement percent” value in test [1] is 28.57%. Moreover, the “OBP14 F.D. (%) fluorescence displacement percent” value in test [2] (setting [3]) turned out to be 24.52%.

On to `CC/C=C\CCOC(C)=O` [Z3-Hexenyl acetate], for which the “OBP5 F.D. (%) fluorescence displacement percent” value in test [1] turned out to be 27.72%. Moreover, the “OBP14 F.D. (%) fluorescence displacement percent” value in test [2] (setting [3]) was 31.25%.

Take `CC/C=C\CCOC(=O)CCC` [Z3-Hexenyl butyrate]: the “OBP5 F.D. (%) fluorescence displacement percent” value in test [1] is 20.80%. Also, the “OBP14 F.D. (%) fluorescence displacement percent” value in test [2] (pH 7.4) was determined as 26.39%.

Turning to `CC1=CC[C@H](C(C)C)C=C1` [α-Phellandrene], the inhibition at 20 µM in test [1] was 37.4%. Moreover, the “OBP14 F.D. (%) fluorescence displacement percent” value in test [2] (setting [3]) was 36.07%.

Take `CC1=CCC2CC1C2(C)C` (stereo not drawn) [α-Pinene]: the inhibition at 20 µM in test [1] came out at 25.1%. Moreover, in test [2] (setting [3]), the “OBP14 F.D. (%) fluorescence displacement percent” value is 29.24%.

For `CC1=CC=C(C(C)C)CC1` [α-Terpinene], the inhibition at 20 µM in test [1] is 35.1%. The “OBP14 F.D. (%) fluorescence displacement percent” value in test [2] (setting [3]) amounted to 27.93%.

As for `CC1=CC[C@@H](C(C)(C)O)CC1` [α-Terpineol], in test [1], the inhibition at 20 µM is 33.9%. Moreover, the “OBP14 F.D. (%) fluorescence displacement percent” value in test [2] (setting [3]) was 30.28%.

As for `CC1=C(C=O)C(C)(C)CCC1` [β-Cyclocitral], in test [1], the “OBP5 F.D. (%) fluorescence displacement percent” value was determined as 32.90%. In test [2] (setting [3]), the “OBP14 F.D. (%) fluorescence displacement percent” value is 32.77%.

As for `CC(=O)/C=C/C1=C(C)CCCC1(C)C` [β-Ionone], the Ki (commonly the dissociation constant of the complex between target and ligand, obtained from inhibition or displacement) in test [1] (listed as β-ionone) was less than 13 µM; in test [1], 9.11 ± 1.03 µM; in test [2] (listed as β-ionone), less than 13 µM; in test [2], 8.39 ± 1.04 µM. Also, the inhibition at 20 µM in test [1] worked out at 59.5%. Besides, in test [2] (setting [3]), the “OBP14 F.D. (%) fluorescence displacement percent” value is 62.86%.

Take `CC1=CCC(C(C)C)=CC1` [γ-Terpinene]: in test [1], the inhibition at 20 µM was determined as 28.2%. Besides, the “OBP14 F.D. (%) fluorescence displacement percent” value in test [2] (setting [3]) came to 24.46%.

For the compound Abamectin, in test [1], the “OBP5 F.D. (%) fluorescence displacement percent” value was found to be 24.16%. Moreover, the “OBP14 F.D. (%) fluorescence displacement percent” value in test [2] (setting [3]) is given as 4.33%.

On to Farnesene, for which the “OBP5 F.D. (%) fluorescence displacement percent” value in test [1] stood at 40.68%. In test [2] (setting [3]), the “OBP14 F.D. (%) fluorescence displacement percent” value is 17.77%.
